Experimental data published in patent US7115632B1, “Sulfonyl aryl or heteroaryl hydroxamic acid compounds” (priority 1999, dated 2006).
Where a name gives a salt, the structure may show the parent alone.

Experiments:
Assay in all cases: In vitro metalloprotease inhibition, fluorogenic MCA peptide substrate
Format in all cases: biochemical
MMP-2 = biological target: T1, MMP-2 (Homo sapiens, UniProt P08253)
T1 construct: made in house; provided by Dr. Gregory Goldberg, Washington University
T1 sequence (P08253 110-660): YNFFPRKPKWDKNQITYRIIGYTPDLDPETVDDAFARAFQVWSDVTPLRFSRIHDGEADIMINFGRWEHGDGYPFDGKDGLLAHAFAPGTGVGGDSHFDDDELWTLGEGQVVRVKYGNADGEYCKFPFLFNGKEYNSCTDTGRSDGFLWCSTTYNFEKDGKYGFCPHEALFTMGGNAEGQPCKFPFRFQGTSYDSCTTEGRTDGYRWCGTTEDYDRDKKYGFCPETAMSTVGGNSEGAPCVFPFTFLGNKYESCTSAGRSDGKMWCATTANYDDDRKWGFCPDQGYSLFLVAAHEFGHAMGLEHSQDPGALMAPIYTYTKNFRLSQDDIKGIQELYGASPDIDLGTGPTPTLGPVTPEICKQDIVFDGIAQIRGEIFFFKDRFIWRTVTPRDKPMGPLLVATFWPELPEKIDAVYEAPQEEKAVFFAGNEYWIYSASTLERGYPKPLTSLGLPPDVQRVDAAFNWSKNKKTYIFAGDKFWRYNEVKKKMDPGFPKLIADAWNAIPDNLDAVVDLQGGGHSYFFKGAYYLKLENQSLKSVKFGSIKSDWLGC
Method: (§1) Briefly, 4-aminophenylmercuric acetate (APMA) or trypsin-activated MMPs were incubated with various concentrations of the inhibitor compound at room temperature for 5 minutes.
(§2) The expressed enzyme was purified first over a heparin agarose column and then over a chelating zinc chloride column. The proenzyme was activated by APMA for use in the assay.
(§3) MMP-1 expressed in transfected HT-1080 cells was provided by Dr. Harold Welgus of Washington University, St. Louis, Mo. The enzyme was also activated using APMA and was then purified over a hydroxamic acid column. Dr. Welgus also provided transfected HT-1080 cells that expressed MMP-9. Transfected cells that expressed MMP-2 were provided by Dr. Gregory Goldberg, also of Washington University.
(§4) The ID50 values were calculated from those values.

MMP-13 = biological target: T2, MMP-13 (Homo sapiens, UniProt P45452)
T2 construct: made in house; host or cells: insect cells, baculovirus expression
Method: as §1, §2, §3, §4

MMP-1 = biological target: T3, MMP-1 (Homo sapiens, UniProt P03956)
T3 construct: made in house; host or cells: transfected HT-1080 cells (provided by Dr. Harold Welgus, Washington University)
T3 sequence (P03956 100-469): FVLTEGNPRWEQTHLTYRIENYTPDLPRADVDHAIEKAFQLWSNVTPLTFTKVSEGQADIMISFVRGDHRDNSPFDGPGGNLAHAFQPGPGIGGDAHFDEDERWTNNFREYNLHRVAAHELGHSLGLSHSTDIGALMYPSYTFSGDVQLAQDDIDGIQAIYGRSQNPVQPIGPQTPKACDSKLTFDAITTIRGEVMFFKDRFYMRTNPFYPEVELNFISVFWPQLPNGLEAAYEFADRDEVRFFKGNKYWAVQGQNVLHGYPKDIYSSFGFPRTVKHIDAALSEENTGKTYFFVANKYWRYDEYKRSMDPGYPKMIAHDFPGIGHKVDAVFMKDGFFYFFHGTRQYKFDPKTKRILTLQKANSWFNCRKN
Method: as §1, §2, §3, §4

`O=C(NO)c1ccccc1CS(=O)(=O)c1ccc(Oc2ccccc2)cc1` [Example 1, N-hydroxy-2-[[(4-phenoxyphenyl)sulfonyl]methyl]benzamide] gave an IC50 (MMP-2; Inhibition Table A) of 10 nM and an IC50 (MMP-13; Inhibition Table A) of 45 nM.
For `O=C(Cc1ccccc1S(=O)(=O)c1ccc(Oc2ccccc2)cc1)NO` [Example 2, N-hydroxy-2-[(4-phenoxyphenyl)sulfonyl]benzeneacetamide], the IC50 (MMP-2; Inhibition Table A) was 0.3 nM, the IC50 (MMP-1; Inhibition Table A) was 900 nM and the IC50 (MMP-13; Inhibition Table A) was 2 nM.
`O=C(NO)c1ccccc1NS(=O)(=O)c1ccc(Oc2ccccc2)cc1` [Example 5, N-hydroxy-2-[[(4-phenoxyphenyl)sulfonyl]amino]benzamide] was tested, and the IC50 (MMP-2; Inhibition Table A) was 3500 nM.
`COc1ccc(S(=O)(=O)Cc2ccccc2C(=O)NO)cc1` [Example 6] was tested, and the IC50 (MMP-1; Inhibition Table A) was > 10000 nM and the IC50 (MMP-13; Inhibition Table A) was 4000 nM.
`O=C(NO)c1ccccc1S(=O)(=O)N1CCC(c2ccccc2)CC1` [Example 9, N-Hydroxy-2-[[4-(phenyl)-1-piperidinyl]sulfonyl]benzamide] showed an IC50 (MMP-2; Inhibition Table A) of 45 nM and an IC50 (MMP-13; Inhibition Table A) of 1500 nM.
`CC(O)(C(=O)NO)c1ccccc1S(=O)(=O)N1CCC(c2ccccc2)CC1` (stereo not shown) [Example 10] showed an IC50 (MMP-2; Inhibition Table A) of 70 nM and an IC50 (MMP-13; Inhibition Table A) of 520 nM.
Compound `O=C(NO)c1ccccc1S(=O)(=O)N1CCC(Oc2ccc(OC(F)(F)F)cc2)CC1` [Example 12, N-Hydroxy-2-[[4-[4-(trifluoromethoxy)phenoxy]-1-piperidinyl]sulfonyl]benzamide] has an IC50 (MMP-2; Inhibition Table A) of 2.2 nM.
In the case of `O=C(NO)c1ccccc1S(=O)(=O)N1CCC(Oc2ccc(C(F)(F)F)cc2)CC1` [Example 13, N-hydroxy-2-[[4-[4-(trifluoromethyl)phenoxy]-1-piperidinyl]sulfonyl]benzamide], the IC50 (MMP-13; Inhibition Table A) is reported as 28.5 nM.
With `COc1ccc(S(=O)(=O)N2CCC(Oc3ccc(C(F)(F)F)cc3)CC2)c(C(=O)NO)c1OC` [Example 16, N-Hydroxy-2,3-dimethoxy-6-[[4-[4-(trifluoromethyl)phenoxy]-1-piperidinyl)sulfonyl]benzamide] the IC50 (MMP-2; Inhibition Table A) was 2.4 nM and the IC50 (MMP-13; Inhibition Table A) was 2.7 nM.
`O=C(NO)c1c(F)cccc1S(=O)(=O)N1CCC(Oc2ccc(C(F)(F)F)cc2)CC1` [Example 19, 2-Fluoro-N-hydroxy-6-[[4-[4-(trifluoromethyl)phenoxy]-1-piperidinyl]sulfonyl]benzamide] was tested, and the IC50 (MMP-2; Inhibition Table A) was 5 nM.
With `O=C(NO)c1c(Cl)cccc1S(=O)(=O)N1CCC(Oc2ccc(C(F)(F)F)cc2)CC1` [Example 20, 2-Chloro-N-hydroxy-6-[[4-[4-(trifluoromethyl)phenoxy]-1-piperidinyl]sulfonyl]benzamide] the IC50 (MMP-2; Inhibition Table A) was 1.8 nM, the IC50 (MMP-1; Inhibition Table A) was > 10000 nM and the IC50 (MMP-13; Inhibition Table A) was 14.8 nM.
In the case of `O=C(NO)c1ccccc1S(=O)(=O)N1CCC(Oc2ccncc2)CC1` [Example 21, N-Hydroxy-2-[[4-(4-pyridinyloxy)-1-piperidinyl]sulfonyl]benzamide], the IC50 (MMP-2; Inhibition Table A) is reported as 5.9 nM, the IC50 (MMP-1; Inhibition Table A) is reported as > 10000 nM and the IC50 (MMP-13; Inhibition Table A) is reported as 63 nM.
`COCCOc1cccc(S(=O)(=O)N2CCC(Oc3ccc(C(F)(F)F)cc3)CC2)c1C(=O)NO` [Example 23, N-Hydroxy-2-(2-methoxyethoxy)-6-[[4-[4-(trifluoromethyl)phenoxy]-1-piperidinyl]sulfonyl]benzamide] showed an IC50 (MMP-2; Inhibition Table B) of 1 nM and an IC50 (MMP-13; Inhibition Table B) of 4.3 nM.
For `COc1ccc(S(=O)(=O)N2CCC(Oc3ccc(-c4ccccc4)cc3)CC2)c(C(=O)NO)c1OC` [Example 28], the IC50 (MMP-2; Inhibition Table B) was 0.4 nM, the IC50 (MMP-1; Inhibition Table B) was > 10000 nM and the IC50 (MMP-13; Inhibition Table B) was 1.8 nM.
With `O=C(NO)c1ccccc1S(=O)(=O)N1CCC(n2c(=O)[nH]c3ccccc32)CC1` [Example 29, 2-[[4-(2,3-Dihydro-2-oxo-1H-benzimidazol-1-yl)-1-piperidinyl]sulfonyl]-N-hydroxybenzamide] the IC50 (MMP-2; Inhibition Table B) was 370 nM, the IC50 (MMP-1; Inhibition Table B) was > 10000 nM and the IC50 (MMP-13; Inhibition Table B) was 2000 nM.
With `COC1CCN(S(=O)(=O)c2ccc3c(c2C(=O)NO)OCCO3)CC1` [Example 30, 2,3-Dihydro-N-hydroxy-6-[(4-methoxy-1-piperidinyl)sulfonyl]-1,4-benzodioxin-5-carboxamide] the IC50 (MMP-2; Inhibition Table B) was > 10000 nM, the IC50 (MMP-1; Inhibition Table B) was > 10000 nM and the IC50 (MMP-13; Inhibition Table B) was > 10000 nM.
`O=C(NO)c1c(S(=O)(=O)N2CCC(Oc3ccc(C(F)(F)F)cc3)CC2)ccc2c1OCCO2` [Example 31] was tested, and the IC50 (MMP-2; Inhibition Table B) was 1.4 nM, the IC50 (MMP-1; Inhibition Table B) was > 10000 nM and the IC50 (MMP-13; Inhibition Table B) was 7.7 nM.
In the case of `O=C(NO)c1c(Cl)sc(Cl)c1S(=O)(=O)N1CCC(Oc2ccc(C(F)(F)F)cc2)CC1` [Example 32, 2,5-Dichloro-N-hydroxy-4-[[4-{4-(trifluoromethyl)phenoxy]-1-piperidinyl]sulfonyl]-3-thiophenecarboxamide], the IC50 (MMP-2; Inhibition Table B) is reported as 110 nM, the IC50 (MMP-1; Inhibition Table B) is reported as > 10000 nM and the IC50 (MMP-13; Inhibition Table B) is reported as 730 nM.
`COc1ccccc1OC1CCN(S(=O)(=O)c2ccc(OC)c(OC)c2C(=O)NO)CC1` [Example 34, N-Hydroxy-2,3-dimethoxy-6-[[4-(2-methoxyphenoxy)-1-piperidinyl]sulfonyl]benzamide] was tested, and the IC50 (MMP-2; Inhibition Table B) was 330 nM, the IC50 (MMP-1; Inhibition Table B) was > 10000 nM and the IC50 (MMP-13; Inhibition Table B) was 2500 nM.
With `COc1ccc(OC)c(S(=O)(=O)N2CCC(Oc3ccc(C(F)(F)F)cc3)CC2)c1C(=O)NO` [Example 35] the IC50 (MMP-2; Inhibition Table B) was 21 nM, the IC50 (MMP-1; Inhibition Table B) was > 10000 nM and the IC50 (MMP-13; Inhibition Table B) was 110 nM.
`O=C(NO)c1ccccc1S(=O)(=O)N1CCC(Oc2ccccn2)CC1` [Example 42, N-hydroxyl-2-[[4-(2-pyridinyloxy)-1-piperidinyl]sulfonyl]benzamide, monohydrochloride] gave an IC50 (MMP-2; Inhibition Table B) of 42 nM and an IC50 (MMP-13; Inhibition Table B) of 1200 nM.
`CCCCOC1CCN(S(=O)(=O)c2ccc3c(c2C(=O)NO)OCO3)CC1` [Example 43, 5-[(4-Butoxy-1-piperidinyl)sulfonyl]-N-hydroxy-1,3-benzodioxole-4-carboxamide] was tested, and the IC50 (MMP-2; Inhibition Table B) was 200 nM, the IC50 (MMP-1; Inhibition Table B) was > 10000 nM and the IC50 (MMP-13; Inhibition Table B) was 3700 nM.
For `CCCCCCCOC1CCN(S(=O)(=O)c2ccc3c(c2C(=O)NO)OCO3)CC1` [Example 44, 5-[(4-Heptyloxy-1-piperidinyl)sulfonyl]-N-hydroxy-1,3-benzodioxole-4-carboxamide], the IC50 (MMP-2; Inhibition Table B) was 206 nM, the IC50 (MMP-1; Inhibition Table B) was > 10000 nM and the IC50 (MMP-13; Inhibition Table B) was 330 nM.
In the case of `COc1ccc(S(=O)(=O)N2CCC(Oc3ccc(Cl)cc3)CC2)c(C(=O)NO)c1OC` [Example 46, 6-[[4-(4-Chlorophenoxy)-1-piperidinyl]sulfonyl]-N-hydroxy-2,3-dimethoxybenzamide], the IC50 (MMP-2; Inhibition Table B) is reported as 0.3 nM, the IC50 (MMP-1; Inhibition Table B) is reported as > 10000 nM and the IC50 (MMP-13; Inhibition Table B) is reported as 1.5 nM.
For `COc1ccc(S(=O)(=O)N2CCC(Oc3ccccc3)CC2)c(C(=O)NO)c1OC` [Example 47, N-Hydroxy-2,3-dimethoxy-6-[(4-phenoxy-1-piperidinyl)sulfonyl]benzamide], the IC50 (MMP-2; Inhibition Table B) was 1.1 nM, the IC50 (MMP-1; Inhibition Table B) was > 10000 nM and the IC50 (MMP-13; Inhibition Table B) was 6.7 nM.
`O=C(NO)c1c(OC2CCOCC2)cccc1S(=O)(=O)N1CCC(Oc2ccc(C(F)(F)F)cc2)CC1` [Example 48] was tested, and the IC50 (MMP-2; Inhibition Table B) was 1 nM, the IC50 (MMP-1; Inhibition Table B) was > 10000 nM and the IC50 (MMP-13; Inhibition Table B) was 2.2 nM.
With `O=C(NO)c1c(S(=O)(=O)N2CCC(Oc3ccc4c(c3)OCO4)CC2)ccc2c1OCO2` [Example 49, 5-[[4-((1,3-Benzodioxol]-5-yloxy)-1-piperidinyl]sulfonyl]-N-hydroxy-1,3-benzodioxole-4-carboxamide] the IC50 (MMP-2; Inhibition Table B) was 1.1 nM, the IC50 (MMP-1; Inhibition Table B) was > 10000 nM and the IC50 (MMP-13; Inhibition Table B) was 19 nM.
`O=C(NO)c1ccccc1S(=O)(=O)N1CCN(C(=O)c2ccccc2)CC1` [Example 51, 2-[(4-Benzoyl-1-piperazinyl)sulfonyl]-N-hydroxybenzamide] was tested, and the IC50 (MMP-1; Inhibition Table B) was > 10000 nM.
In the case of `COc1ccc(S(=O)(=O)N2CCN(Cc3ccc(OC(F)(F)F)cc3)CC2)c(C(=O)NO)c1OC` [Example 53, N-Hydroxy-2,3-dimethoxy-6-[[4-[[4-(trifluoromethoxy)phenyl]methyl]-1-piperazinyl]sulfonyl]benzamide, monohydrochloride], the IC50 (MMP-2; Inhibition Table B) is reported as 240 nM, the IC50 (MMP-1; Inhibition Table B) is reported as > 10000 nM and the IC50 (MMP-13; Inhibition Table B) is reported as 1900 nM.
With `CCCCOc1ccc(N2CCN(S(=O)(=O)c3ccc(OC)c(OC)c3C(=O)NO)CC2)cc1C` [Example 56, 6-[[4-(4-Butoxy-3-methylphenyl)-1-piperazinyl]sulfonyl]-N-hydroxy-2,3-dimethoxybenzamide, monohydrochloride] the IC50 (MMP-2; Inhibition Table B) was 9 nM, the IC50 (MMP-1; Inhibition Table B) was > 10000 nM and the IC50 (MMP-13; Inhibition Table B) was 20 nM.
With `COc1cccc(OC2CCN(S(=O)(=O)c3ccc(OC)c(OC)c3C(=O)NO)CC2)c1` [Example 57] the IC50 (MMP-2; Inhibition Table B) was 12.1 nM, the IC50 (MMP-1; Inhibition Table B) was > 10000 nM and the IC50 (MMP-13; Inhibition Table B) was 250 nM.
